Experimental data published in BigSolDB 2.1.

CC[n+]1ccccc1.F[P-](F)(F)(F)(F)F
solubility (mole fraction)
Details	in ethanol	in water
278.15 K	8.4e-05	0.000474
283.15 K	0.000121	0.000581
288.15 K	0.000171	0.000711
293.15 K	0.000224	0.000857
298.15 K	0.000324	0.00105
303.15 K	0.000561	0.0013
308.15 K	0.00061	0.00159
313.15 K	0.000718	0.00186
318.15 K	0.000976	0.00216
323.15 K	0.0015	0.0026
328.15 K	0.00189	0.00325
333.15 K	0.00252	0.00387
338.15 K	0.00308	0.00454
343.15 K	0.00389	0.00535
